Assay [1] relates to Mycobacterium tuberculosis. In words: Inhibition of full length Mycobacterium tuberculosis recombinant ZMP1 expressed in Escherichia coli BL21(DE3) using MCA-Pro-Leu-Gly-Leu-Dpa-Ala-Arg-NH2 as substrate at 100 uM by fluorometric analysis relative to control.
A short description of assay [2]: Competitive inhibition of full length Mycobacterium tuberculosis recombinant ZMP1 expressed in Escherichia coli BL21(DE3) using MCA-Pro-Leu-Gly-Leu-Dpa-Ala-Arg-NH2 as substrate by sigma plot analysis.
A short description of assay [3]: Selectivity index, ratio of Ki for human neprilysin to Ki for full length Mycobacterium tuberculosis recombinant ZMP1.
Another assay deals with Neprilysin (Homo sapiens, UniProt P08473). In words: Inhibition of human neprilysin by fluorometric analysis.
Chain of Neprilysin (P08473 whole entry): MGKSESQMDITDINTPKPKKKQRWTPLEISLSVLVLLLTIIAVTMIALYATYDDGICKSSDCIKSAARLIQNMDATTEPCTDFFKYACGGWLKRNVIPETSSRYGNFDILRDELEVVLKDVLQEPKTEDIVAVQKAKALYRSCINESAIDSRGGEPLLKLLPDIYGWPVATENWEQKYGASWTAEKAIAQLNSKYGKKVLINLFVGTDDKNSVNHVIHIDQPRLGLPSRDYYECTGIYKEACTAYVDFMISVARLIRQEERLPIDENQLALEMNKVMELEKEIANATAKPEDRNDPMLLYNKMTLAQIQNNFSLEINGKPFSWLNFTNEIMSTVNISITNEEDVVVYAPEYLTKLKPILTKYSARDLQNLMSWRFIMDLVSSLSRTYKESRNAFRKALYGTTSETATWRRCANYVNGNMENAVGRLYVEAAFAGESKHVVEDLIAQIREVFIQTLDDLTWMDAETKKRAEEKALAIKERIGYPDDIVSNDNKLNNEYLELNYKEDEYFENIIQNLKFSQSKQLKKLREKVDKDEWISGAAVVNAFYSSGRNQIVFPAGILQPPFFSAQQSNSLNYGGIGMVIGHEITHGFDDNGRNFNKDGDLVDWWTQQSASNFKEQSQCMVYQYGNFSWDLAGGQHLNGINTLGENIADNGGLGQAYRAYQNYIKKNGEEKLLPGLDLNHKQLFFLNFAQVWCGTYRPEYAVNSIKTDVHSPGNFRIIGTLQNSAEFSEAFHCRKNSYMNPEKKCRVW

On to `Cn1c(=O)c2c(nc(SCC(=O)O)n2Cc2ccc(Cl)cc2)n(C)c1=O`, for which the inhibition in assay [1] is 28%.
For the compound `O=C(O)c1ccc(/C=C2/SC(=S)N(C(Cc3ccccc3)C(=O)O)C2=O)cc1` (racemic), the inhibitory constant (Ki) in assay [2] was determined as 0.39 µM.
Still for that read-out and setting: with `O=C(OCc1ccccc1)c1ccc(/C=C2\SC(=S)N([C@H](Cc3ccccc3)C(=O)O)C2=O)cc1` the figure was 1.8 µM.
Regarding `O=S(=O)(O)CCCSc1sc2ccc(Cl)cc2[n+]1CCCS(=O)(=O)O`, the Ki in assay [2] is 32.9 µM. Further, the inhibition in assay [1] is 78%.
Consider `O=C(O)c1ccc(/C=C2/SC(=S)N([C@H](Cc3ccccc3)C(=O)O)C2=O)cc1`, for which, in assay [3], the Ratio Ki is 266. Besides, the Ki was determined as 0.094 µM in assay [2] and 25 µM on Neprilysin.
Turning to `O=C(O)CCC(C(=O)O)N1C(=O)/C(=C\c2ccc(-c3cccc(Cl)c3Cl)o2)SC1=S` (stereo not drawn), in assay [2], the Ki amounted to 3.7 µM.
On to `O=C(O)CC(C(=O)O)N1C(=O)/C(=C\c2ccc(O)c(O)c2)SC1=S` (stereo not drawn), for which the Ki in assay [2] was 2.7 µM.
In the case of `C=Cc1[nH]c(C(C)NC(=O)c2ccc(=O)n(CC(=O)NCc3ccc(F)cc3)c2)nc1C` (stereo not drawn), the inhibition in assay [1] came out at 16%.
As to `O=C(O)CN1C(=O)/C(=C2/Sc3ccccc3N2CCCS(=O)(=O)O)SC1=S`, in assay [2], the Ki was found to be 4.8 µM.
As for `O=C(NC(Cc1ccccc1)C(=O)O)/C(=C/c1cccc([N+](=O)[O-])c1)NC(=O)c1ccco1` (stereo not drawn), the inhibition in assay [1] is 54%.
`O=C1/C(=C\c2ccc(-c3cccc([N+](=O)[O-])c3)o2)SC(=S)N1CCS(=O)(=O)O`: in assay [2], the Ki is 32.2 µM.
With `COC(=O)c1ccc(/C=C2\SC(=S)N([C@H](Cc3ccccc3)C(=O)O)C2=O)cc1`, in assay [2], the Ki was determined as 5.7 µM.
On to `O=C(O)c1ccc(/C=C2/SC(=S)N([C@@H](Cc3ccccc3)C(=O)O)C2=O)cc1`, for which, in assay [3], the Ratio Ki was 21.7. Moreover, the Ki came to 1.7 µM in assay [2] and 37 µM at Neprilysin.
